Measurements: US4916219A, “Oligosaccharide heparin fragments as inhibitors of complement cascade” (University of Iowa Research Foundation, priority 1988, dated 1990)

Tests used:
[1] = system: T1, factor IIa (Homo sapiens); assay: Antithrombin III mediated anti-factor IIa activity, purified plasma proteins; type: biochemical; details: standard curve using heparin (Mr avg 14,000), 167 units/mg
T1 construct: anti-factor IIa; from tissue
Protocol: (§1) This example illustrates the anticoagulant activity of each heparin and heparin-oligosaccharide fragment. Anticoagulant activity was determined by aPTT (activated thromboplastin time) (Linhardt et al., J. Biol. Chem. 257: 7310-13, 1982). Antithrombin III-mediated anti-factor IIa and antifactor Xa activity was measured using purified plasma proteins as described in Linhardt et al. and in Table 2. […] Two bovine heparins had 106% and 124% of standard porcine heparin's activity and the low molecular weight heparin had 100% of standard porcine heparin's activity on complement activation.
(§2) The anticoagulant activity of heparin-oligosaccharides and commercial heparins measured by antifactor IIa assays are plotted against their ability to inhibit complement activation in FIG. 5. The porcine heparins, bovine heparins, and low molecular heparins cluster, showing only minor differences in activities.

[2] = system: factor Xa; assay: Antithrombin III mediated anti-factor Xa activity, purified plasma proteins; type: biochemical; details: standard curve using heparin (Mr avg 14,000), 167 units/mg
Protocol: as §1

[3] = system: aPTT (activated thromboplastin time); assay: Anticoagulant activity by aPTT; type: biochemical; details: standard curve using heparin (Mr avg 14,000), 167 units/mg
Protocol: as §1, §2

[4] = target: T2, alternative-amplification pathway C3 convertase on EAC4b,3b (Homo sapiens, UniProt P00751+P01024); assay: Inhibition of generation of alternative-amplification pathway C3 convertase (lysis of EAC4b,3b); type: biochemical, sheep erythrocyte
T2 construct: C3bBb(P) formation read by lysis with rat serum-EDTA
Protocol: This example illustrates the activity of heparin and heparin-oligosaccharides to inhibit generation of the alternative-amplification pathway C3 convertase. The method described in Weiler et al., J. Exp. Med. 147: 409-421, 1978; Weiler, Immunopharmacology 6: 245-255, 1983; and Sharath et al., Immunopharmacology 9: 73-83, 1985, was used. Briefly, inhibition was examined in experiments that used EAC4b,3b which were prepared to have high, intermediate, and low amounts of C3 on the cell surface. EAC4b,3b^100, EAC4b,3b^20, and EAC4b,3b^5 were produced using a C3 input of 100 μg, 20 μg, and 5 μg per 10^9 EAC4b,2a cellular intermediates, respectively. Complement assay buffer (DGVB^++) 100 μL, alone was added to tubes used for the reagent blank, no inhibition, and 100% lysis; or complement assay buffer containing a heparin or heparin-oligosaccharide solution was added to the remaining tubes. At time zero, 100 μl of complement assay buffer containing a suspension of 1×10^7 EAC4b,3b, an excess amount of P and D (100 ng P), and an amount of B needed to lyse the noninhibited tubes at an average of 1 hemolytic event per cell (0.03 ng B for EAC4b,3b^100, 0.15 ng B for EAC4b,3b^20, and 0.50 ng B for EAC4b,3b^5) was added to each tube. The tubes used for the reagent blank contained no B. The mixtures were incubated for 30 minutes at 30° C. with shaking. Then, 300 μL of a 1:20 dilution of rat serum in 40 mM EDTA was added to each tube and incubation was continued with shaking for 60 minutes at 37° C. Saline (1.5 mL) was then added to each tube, except the 100% tube which was lysed with 1.5 mL of water in place of the saline. Finally, the contents of the tubes were mixed, centrifuged and the absorbance of the supernatant was measured at 414 nm.
The percent lysis, the average number of hemolytic sites per cell (Z), and the percent inhibition were then calculated. Data are expressed as either percent inhibition or as 100 times the ED50 (the amount of heparin resulting in 50% inhibition) for heparin divided by the ED50 for heparin-oligosaccharide. Concentration of heparin and heparin-oligosaccharides are expressed as micrograms per 1×10^7 cellular intermediates. The volume of the reaction tubes during convertase generation varied between 0.2 mL and 0.3 mL; the number of cellular intermediates was held at 1×10^7 per tube. The amount of lysis (Z) seen in the nonhibited tube was relatively independent of the volume of buffer present in the tube during convertase generation. Similarly, the amount of inhibition of convertase generation was independent of the volume of buffer present in the tube during convertase generation.

T1 sequence (P01008 33-464): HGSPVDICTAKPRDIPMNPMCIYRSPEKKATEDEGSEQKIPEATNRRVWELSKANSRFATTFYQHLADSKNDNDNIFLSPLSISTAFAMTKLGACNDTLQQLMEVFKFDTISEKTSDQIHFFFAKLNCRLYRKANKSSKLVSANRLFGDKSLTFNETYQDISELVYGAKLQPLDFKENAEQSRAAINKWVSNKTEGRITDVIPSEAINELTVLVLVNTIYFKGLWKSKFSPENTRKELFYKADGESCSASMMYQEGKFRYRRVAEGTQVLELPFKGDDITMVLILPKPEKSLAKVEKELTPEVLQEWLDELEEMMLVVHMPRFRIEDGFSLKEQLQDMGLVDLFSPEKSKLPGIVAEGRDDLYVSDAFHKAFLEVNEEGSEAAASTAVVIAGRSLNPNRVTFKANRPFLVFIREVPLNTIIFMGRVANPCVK
T2 sequence (P01024 23-1663): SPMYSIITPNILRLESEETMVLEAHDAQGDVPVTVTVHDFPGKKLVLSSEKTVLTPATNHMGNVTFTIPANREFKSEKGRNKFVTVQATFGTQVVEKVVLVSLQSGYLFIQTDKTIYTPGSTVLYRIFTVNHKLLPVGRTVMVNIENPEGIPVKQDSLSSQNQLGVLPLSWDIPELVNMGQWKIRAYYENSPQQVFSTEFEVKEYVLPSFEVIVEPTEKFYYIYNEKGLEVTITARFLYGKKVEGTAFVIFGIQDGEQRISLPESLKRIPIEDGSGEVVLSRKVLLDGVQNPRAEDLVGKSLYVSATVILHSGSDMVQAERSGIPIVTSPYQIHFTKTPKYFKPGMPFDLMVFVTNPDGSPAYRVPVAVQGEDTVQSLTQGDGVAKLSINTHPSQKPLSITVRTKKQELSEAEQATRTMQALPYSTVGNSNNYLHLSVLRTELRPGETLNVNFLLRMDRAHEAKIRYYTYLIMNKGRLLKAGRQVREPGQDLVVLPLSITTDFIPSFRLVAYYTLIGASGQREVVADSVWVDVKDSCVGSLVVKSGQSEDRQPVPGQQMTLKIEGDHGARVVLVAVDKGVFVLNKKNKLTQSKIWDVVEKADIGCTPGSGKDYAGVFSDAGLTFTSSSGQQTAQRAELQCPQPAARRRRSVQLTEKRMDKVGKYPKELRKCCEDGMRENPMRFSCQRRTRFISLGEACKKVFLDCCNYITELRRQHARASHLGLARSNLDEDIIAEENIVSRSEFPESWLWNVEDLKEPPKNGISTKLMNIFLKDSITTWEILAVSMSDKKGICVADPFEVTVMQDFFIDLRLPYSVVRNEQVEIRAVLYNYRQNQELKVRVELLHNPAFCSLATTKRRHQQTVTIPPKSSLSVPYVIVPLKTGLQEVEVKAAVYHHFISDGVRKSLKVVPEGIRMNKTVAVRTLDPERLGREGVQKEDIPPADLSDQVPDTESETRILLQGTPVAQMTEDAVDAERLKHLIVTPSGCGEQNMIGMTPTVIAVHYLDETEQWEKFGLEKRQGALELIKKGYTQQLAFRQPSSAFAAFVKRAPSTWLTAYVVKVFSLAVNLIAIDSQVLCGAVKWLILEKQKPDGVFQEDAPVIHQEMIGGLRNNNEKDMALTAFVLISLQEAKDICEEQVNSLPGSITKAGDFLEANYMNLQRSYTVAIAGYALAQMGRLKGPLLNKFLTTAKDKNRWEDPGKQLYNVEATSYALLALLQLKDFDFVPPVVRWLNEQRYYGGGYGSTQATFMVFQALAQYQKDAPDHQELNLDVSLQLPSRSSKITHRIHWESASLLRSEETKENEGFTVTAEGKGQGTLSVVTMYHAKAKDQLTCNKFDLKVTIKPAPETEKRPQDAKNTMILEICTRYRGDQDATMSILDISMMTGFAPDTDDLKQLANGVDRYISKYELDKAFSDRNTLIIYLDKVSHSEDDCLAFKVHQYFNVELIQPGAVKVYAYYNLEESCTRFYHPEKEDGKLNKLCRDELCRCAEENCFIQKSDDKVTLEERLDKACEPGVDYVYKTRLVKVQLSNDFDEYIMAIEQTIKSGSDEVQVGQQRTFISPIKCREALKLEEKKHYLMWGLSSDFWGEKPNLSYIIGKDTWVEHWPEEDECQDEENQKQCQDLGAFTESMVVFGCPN
T2 sequence (P00751 26-764): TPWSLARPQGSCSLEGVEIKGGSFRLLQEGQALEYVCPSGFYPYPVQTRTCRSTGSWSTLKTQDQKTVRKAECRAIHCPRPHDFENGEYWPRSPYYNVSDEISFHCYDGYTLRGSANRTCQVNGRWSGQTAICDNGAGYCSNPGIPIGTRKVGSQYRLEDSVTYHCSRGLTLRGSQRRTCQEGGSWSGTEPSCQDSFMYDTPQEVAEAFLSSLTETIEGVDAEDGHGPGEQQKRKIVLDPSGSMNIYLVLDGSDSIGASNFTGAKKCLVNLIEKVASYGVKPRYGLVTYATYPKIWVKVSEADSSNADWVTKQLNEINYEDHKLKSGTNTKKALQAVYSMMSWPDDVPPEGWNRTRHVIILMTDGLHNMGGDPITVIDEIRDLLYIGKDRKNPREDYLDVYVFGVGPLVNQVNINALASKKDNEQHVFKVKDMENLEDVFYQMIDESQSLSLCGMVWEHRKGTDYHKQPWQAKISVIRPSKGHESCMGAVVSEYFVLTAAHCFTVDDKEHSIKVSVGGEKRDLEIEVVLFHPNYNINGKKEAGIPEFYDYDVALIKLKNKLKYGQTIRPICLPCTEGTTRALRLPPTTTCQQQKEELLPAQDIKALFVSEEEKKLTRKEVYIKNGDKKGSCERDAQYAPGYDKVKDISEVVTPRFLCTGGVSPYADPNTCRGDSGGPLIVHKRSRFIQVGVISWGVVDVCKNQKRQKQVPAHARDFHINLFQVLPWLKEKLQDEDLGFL
T2 sequence (P27918 28-469 partner): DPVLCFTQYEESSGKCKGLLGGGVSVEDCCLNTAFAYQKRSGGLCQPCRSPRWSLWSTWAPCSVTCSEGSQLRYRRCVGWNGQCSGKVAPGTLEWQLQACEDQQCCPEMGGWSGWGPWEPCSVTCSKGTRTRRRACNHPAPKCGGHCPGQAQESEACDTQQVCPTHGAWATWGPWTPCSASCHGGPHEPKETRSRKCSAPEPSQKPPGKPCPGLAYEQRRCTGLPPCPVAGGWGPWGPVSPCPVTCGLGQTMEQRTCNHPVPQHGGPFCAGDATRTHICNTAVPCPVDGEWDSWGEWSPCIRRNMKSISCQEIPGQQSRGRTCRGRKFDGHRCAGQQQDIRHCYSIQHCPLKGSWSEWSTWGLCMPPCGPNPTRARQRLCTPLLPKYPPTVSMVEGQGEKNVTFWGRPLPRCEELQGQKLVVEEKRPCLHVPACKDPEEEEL
T2 sequence (P00746 26-253 partner): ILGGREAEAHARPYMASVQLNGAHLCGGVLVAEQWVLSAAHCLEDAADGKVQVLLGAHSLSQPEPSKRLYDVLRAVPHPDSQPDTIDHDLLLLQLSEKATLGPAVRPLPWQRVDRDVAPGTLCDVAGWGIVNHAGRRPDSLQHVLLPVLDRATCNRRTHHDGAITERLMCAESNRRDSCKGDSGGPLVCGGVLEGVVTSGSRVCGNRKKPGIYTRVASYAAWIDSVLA

Row | Structure (SMILES) | Anticoagulant ACTIVITY Antithrombin III mediated Anti-factor IIa [1] | Anticoagulant ACTIVITY Antithrombin III mediated Anti-factor Xa [2] | Anticoagulant ACTIVITY aPTT [3] | Complement activation inhibitory activity [4]
1 | O=C(O)C1=CC(O)C(OS(=O)(=O)O)C(OC2C(COS(=O)(=O)O)OC(OC3C(C(=O)O)OC(OC4C(COS(=O)(=O)O)OC(OC5C(C(=O)O)OC(OC6C(COS(=O)(=O)O)OC(OC7C(C(=O)O)OC(OC8C(COS(=O)(=O)O)OC(OC9C(C(=O)O)OC(OC%10C(COS(=O)(=O)O)OC(O)C(NS(=O)(=O)O)C%10O)C(OS(=O)(=O)O)C9O)C(NS(=O)(=O)O)C8O)C(OS(=O)(=O)O)C7O)C(NS(=O)(=O)O)C6O)C(OS(=O)(=O)O)C5O)C(NS(=O)(=O)O)C4O)C(OS(=O)(=O)O)C3O)C(NS(=O)(=O)O)C2O)O1 (centres unmarked) [10D] | < 3 units/μmole | 136 units/μmole | 54 units/μmole | 
2 | O=C(O)C1=C[C@H](O)[C@@H](OS(=O)(=O)O)[C@H](O[C@H]2[C@H](O)[C@@H](NS(=O)(=O)O)[C@@H](O[C@H]3[C@H](O)[C@@H](OS(=O)(=O)O)[C@H](O[C@H]4[C@H](O)[C@@H](NS(=O)(=O)O)C(O)O[C@@H]4COS(=O)(=O)O)O[C@H]3C(=O)O)O[C@@H]2CO)O1 (stereo partly drawn) [4A, ΔUAp2S(1→4)-α-D-GlcNp2S(1→4)-α-L-IdoAp2S-α-D-GlcNp2S6S] | < 1 units/μmole | < 0.1 units/μmole | 2 units/μmole | low activity
3 | O=C(O)C1=C[C@H](O)[C@@H](OS(=O)(=O)O)[C@H](O[C@H]2[C@H](O)[C@@H](NS(=O)(=O)O)C(O)O[C@@H]2COS(=O)(=O)O)O1 (stereo partly drawn) [compound 2, ΔUAp2S(1→4)-α-D-GlcNp2S6S] | < 1 units/μmole | < 0.1 units/μmole | < 1 units/μmole | low activity
4 | O=C(O)C1=C[C@H](O)[C@@H](OS(=O)(=O)O)[C@H](O[C@H]2[C@H](O)[C@@H](NS(=O)(=O)O)[C@@H](O[C@H]3[C@H](O)[C@@H](O)[C@H](O[C@H]4[C@H](O)[C@@H](NS(=O)(=O)O)C(O)O[C@@H]4COS(=O)(=O)O)O[C@@H]3C(=O)O)O[C@@H]2COS(=O)(=O)O)O1 (stereo partly drawn) [4B, ΔUAp2S(1→4)-α-D-GlcNp2S6S(1→4)-β-D-GlcAp(1→4)-α-D-GlcNp2S6S] | < 2 units/μmole | 0.1 units/μmole | 2 units/μmole | low activity
5 | O=C(O)C1=CC(O)C(OS(=O)(=O)O)C(OC2C(COS(=O)(=O)O)OC(OC3C(C(=O)O)OC(OC4C(COS(=O)(=O)O)OC(OC5C(C(=O)O)OC(OC6C(COS(=O)(=O)O)OC(O)C(NS(=O)(=O)O)C6O)C(OS(=O)(=O)O)C5O)C(NS(=O)(=O)O)C4O)C(OS(=O)(=O)O)C3O)C(NS(=O)(=O)O)C2O)O1 (centres unmarked) [6D] | < 2 units/μmole | 4 units/μmole | 11 units/μmole | 
6 | O=C(O)C1=C[C@H](O)[C@@H](OS(=O)(=O)O)[C@H](O[C@H]2[C@H](O)[C@@H](NS(=O)(=O)O)[C@@H](O[C@H]3[C@H](O)[C@@H](OS(=O)(=O)O)[C@H](O[C@H]4[C@H](O)[C@@H](NS(=O)(=O)O)C(O)O[C@@H]4COS(=O)(=O)O)O[C@H]3C(=O)O)O[C@@H]2COS(=O)(=O)O)O1 (stereo partly drawn) [4C, ΔUAp2S(1→4)-α-D-GlcNp2S6S(1→4)-α-L-IdoAp2S(1→4)-α-D-GlcNp2S6S] | < 2 units/μmole | 3 units/μmole | 2 units/μmole | low activity
7 | CC(=O)NC1C(OC2C(C(=O)O)OC(OC3C(COS(=O)(=O)O)OC(O)C(NS(=O)(=O)O)C3OS(=O)(=O)O)C(O)C2O)OC(COS(=O)(=O)O)C(OC2OC(C(=O)O)C(OC3OC(COS(=O)(=O)O)C(OC4OC(C(=O)O)=CC(O)C4OS(=O)(=O)O)C(O)C3NS(=O)(=O)O)C(O)C2O)C1O [6C, ΔUAp2S(1→4)-α-D-GlcNp2S6S(1→4)-α-L-IdoAp(1→4)-α-D-GlcNAcp6S-(1→4)-β-D-GlcAp( 1→4)-α-D-GlcNp2S3S6S] | 11 units/μmole | 26 units/μmole | 26 units/μmole | low activity
8 | O=C(O)C1=CC(O)C(OS(=O)(=O)O)C(OC2C(COS(=O)(=O)O)OC(OC3C(C(=O)O)OC(OC4C(COS(=O)(=O)O)OC(OC5C(C(=O)O)OC(OC6C(COS(=O)(=O)O)OC(OC7C(C(=O)O)OC(OC8C(COS(=O)(=O)O)OC(O)C(NS(=O)(=O)O)C8O)C(OS(=O)(=O)O)C7O)C(NS(=O)(=O)O)C6O)C(OS(=O)(=O)O)C5O)C(NS(=O)(=O)O)C4O)C(OS(=O)(=O)O)C3O)C(NS(=O)(=O)O)C2O)O1 (centres unmarked) [8D] | < 3 units/μmole | 32 units/μmole | 22 units/μmole | 
